# Experimental data as given in patent US20150133454A1, “NANOSTRUCTURED MUCOADHESIVE MICROPARTICLES” (SNU R&DB FOUNDATION, priority 2012, published 2015).
# What was measured:
# [1] = system: Intra ocular pressure (IOP) of the rabbit eye; experiment: Therapeutic effect: decrease in IOP after administration of drug-loaded formulations; format: in vivo; conditions: topical, 556.5 μg dorzolamide (25 μl of Trusopt 2%)
# Procedure: The formulation of microparticles as prepared in Examples 6-1 and 6-2 was administered to the rabbit eye according to Example 4 and IOP was measured as described in Example 5.
# For testing therapeutic effect by BRT, a total of 7 samples were used. […] For testing therapeutic effect by dorzolamide, 25 μl of Trusopt 2% (MSD, USA), PVA tablet (just containing 556.5 μg of dorzolamide 556.5 μg without any microparticles) and four different types of microparticles prepared as described above containing 556.5 μg dorzolamide were used for the test.
# Then, a device for measuring IOP called Tonopen as described in Example 5 was used to measure IOP before the administration and 0.5 h˜13 h after the administration to confirm the efficacy of the drug.
# [2] = Pharmacokinetic analysis: brimonidine concentration in aqueous humor; format: in vivo; conditions: brimonidine in rabbit aqueous humor after topical administration
# Procedure: Seven different formulations loaded with brimonidine prepared as described in Example 6-1 were topically administered to the rabbit eye and pharmacokinetics of the drug administered was examined as described below from the aqueous humor taken at a specified time in FIG. 12 after the administration. Specifically, the rabbit was generally anesthetized as described in Example 4 at the specified time after the administration and 50 μl of Aqueous humor (AH) was obtained from the rabbit eye using 1 ml syringe with 30 gauge needle, which was then used for SPE (Solid Phase Extraction) and HPLC analysis. First, Brimonidine Stock solution was prepared at the final concentration of […] in distilled water, from which 2000, 1000, 800, 600, 400, 200, 100, and 50 μg/ml of Brimonidine solution were prepared. For the calibration, 25 μl of AH from no treatment control, 25 μl Stock Solution (2000, 1000, 800, 600, 400, 200, 100, 50 μg/ml), 50 μl IS (Internal standard, clonidine)(50 μg/ml) and 200 μl of PBS (pH=8) were mixed and centrifuged at 11000×g for 10 min. and 100 μl of the supernatant was used for SPE analysis.
# For the sample from the rabbit eye treated with the drug, 50 μl of AH, 50 μl of IS (50 μg/ml) and 200 μl of PBS (pH=8) were mixed and centrifuged at 11000×g for 10 min and 100 μl of the supernatant was used for SPE analysis. SPE (Bond-Eluct-C18, 100 mg, 1 ml, Agilent Technologies) analysis was proceed as below. Before the sample injection, it was washed with MeOH (1 ml) and distilled water (1 ml). Each sample for the calibration and for the analysis was then injected and washed with 1 ml of PBS and eluted with 1 ml of 70% acetonitrile, followed by evaporation for 3 hrs at 40° C. using SpeedVac (Thermo Savant SPD 2010 SpeedVac System, Thermo Electron Corporation, USA). […]
# HPLC (Agilent 1260 Series, Agilent Technologies, CA, USA) was used for determining the concentration, in which 50 μl of sample was injected and analyzed under the following condition: Mobile phase=20 mM phosphate buffer (pH=2.5) : MeOH=9:1, flow rate 1 ml/min, 248 nm
Compound,time for which the formulation was effective in decreasing IOP (Dorzolamide) [1] [h],AUC [2] [ng·h/mL],Cmax [2] [ng/mL],tmax [2] [min]
"CCN[C@H]1C[C@H](C)S(=O)(=O)c2sc(S(N)(=O)=O)cc21 [Dorzolamide solution, Dorzolamide]",5,,,
Brimonidine Tartrate [BRT solution],,795,692,40
